The target of experiment [1] is T1, Amine oxidase [flavin-containing] A (Homo sapiens, UniProt P21397).
T1 sequence (P21397 whole entry): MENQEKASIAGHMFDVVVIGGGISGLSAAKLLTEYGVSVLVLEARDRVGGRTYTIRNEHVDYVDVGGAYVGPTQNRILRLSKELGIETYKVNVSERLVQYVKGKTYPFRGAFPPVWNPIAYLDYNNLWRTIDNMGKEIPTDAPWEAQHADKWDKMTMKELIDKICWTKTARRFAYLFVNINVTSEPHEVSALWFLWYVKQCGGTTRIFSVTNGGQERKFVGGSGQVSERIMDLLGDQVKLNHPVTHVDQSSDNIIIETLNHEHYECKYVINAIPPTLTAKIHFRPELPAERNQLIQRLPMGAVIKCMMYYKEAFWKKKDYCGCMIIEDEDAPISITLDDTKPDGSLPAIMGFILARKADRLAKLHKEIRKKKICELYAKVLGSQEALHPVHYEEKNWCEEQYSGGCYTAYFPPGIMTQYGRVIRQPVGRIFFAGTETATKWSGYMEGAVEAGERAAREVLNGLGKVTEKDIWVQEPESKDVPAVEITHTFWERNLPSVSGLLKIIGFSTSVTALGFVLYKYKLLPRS
In words: Inhibition of recombinant human MAOA expressed in baculovirus infected BTI insect cells using p-tyramine as substrate preincubated for 30 mins followed by substrate addition and measured over 15 mins by Amplex red reagent/horseradish peroxidase coupled fluorescence assay.

For experiment [2], the target named is T2, Amine oxidase [flavin-containing] B (Homo sapiens, UniProt P27338).
T2 sequence (P27338 whole entry): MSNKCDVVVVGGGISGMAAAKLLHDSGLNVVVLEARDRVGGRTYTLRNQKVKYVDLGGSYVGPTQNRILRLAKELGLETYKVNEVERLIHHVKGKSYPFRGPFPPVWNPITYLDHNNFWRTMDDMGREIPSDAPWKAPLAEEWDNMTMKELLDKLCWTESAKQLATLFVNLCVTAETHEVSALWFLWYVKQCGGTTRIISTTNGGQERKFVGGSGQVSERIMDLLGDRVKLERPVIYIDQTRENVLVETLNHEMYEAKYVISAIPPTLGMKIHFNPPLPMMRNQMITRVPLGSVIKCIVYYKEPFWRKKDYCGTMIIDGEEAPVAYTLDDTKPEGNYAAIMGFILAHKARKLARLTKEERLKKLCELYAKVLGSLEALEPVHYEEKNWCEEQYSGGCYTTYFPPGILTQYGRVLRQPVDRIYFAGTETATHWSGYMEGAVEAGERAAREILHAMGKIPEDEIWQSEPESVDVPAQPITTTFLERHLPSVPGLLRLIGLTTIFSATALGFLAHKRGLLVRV
In words: Inhibition of recombinant human MAOB expressed in baculovirus infected BTI insect cells using p-tyramine as substrate preincubated for 30 mins followed by substrate addition and measured over 15 mins by Amplex red reagent/horseradish peroxidase coupled fluorescence assay.

Experiment [3] is filed under the species Homo sapiens. In words: Selectivity index, ratio of IC50 for recombinant human MAOA expressed in baculovirus infected BTI insect cells to IC50 for recombinant human MAOB expressed in baculovirus infected BTI insect cells.

Bounds are passed on as bounds.

With `C#CCNC1CCc2c(NCc3ccc(C)cc3)cccc21` (stereo not drawn), the IC50 worked out at 43100 nM in experiment [1] and 250 nM in experiment [2]. In addition, the Ratio IC50 in experiment [3] was found to be 172.

Turning to `C#CCNC1CCc2c(NCc3cccc(Br)c3)cccc21` (stereo not drawn), the IC50 came out at 94300 nM in experiment [1] and 110 nM in experiment [2]. For the same compound, the Ratio IC50 in experiment [3] is 857.

Consider `C#CCNC1CCc2c(OCc3cccc(F)c3)cccc21` (stereo not drawn), for which, in experiment [2], the IC50 came out at 2700 nM.

With `C#CCNC1CCc2c(NCc3cccc(C)c3)cccc21` (stereo not drawn), in experiment [2], the concentration for half-maximal inhibition (IC50) came out at 710 nM.

`C#CCNC1CCc2c(OCCc3cc(NC(=O)CO)ccc3Cl)cccc21` (stereo not drawn): the IC50 was 252000 nM in experiment [1] and 270 nM in experiment [2]. In addition, in experiment [3], the Ratio IC50 was determined as 934.

Turning to `C#CCNC1CCc2c(OCCc3cc(NC(=O)c4cccc(F)c4)ccc3Cl)cccc21` (stereo not drawn), in experiment [2], the IC50 was > 20000 nM.

As for `C#CCNC1CCc2c(OCCc3cccc4ccccc34)cccc21` (stereo not drawn), in experiment [2], the IC50 turned out to be 1900 nM.

With `C#CCNC1CCc2c(SCc3ccc(F)cc3)cccc21` (stereo not drawn), the concentration for half-maximal inhibition (IC50) is < 100 nM in experiment [1] and 240 nM in experiment [2].

`C#CCNC1CCc2c(NCc3ccccc3)cccc21` (stereo not drawn): in experiment [2], the half-maximal inhibitory concentration (IC50) was > 20000 nM.

Regarding `C#CCNC1CCc2c(OCCc3cc(NC(=O)c4ccccc4)ccc3Cl)cccc21` (stereo not drawn), in experiment [2], the IC50 is > 20000 nM.

Take `C#CCNC1CCc2c(OCCc3cccc(NC(=O)c4ccc(Cl)cc4)c3)cccc21` (stereo not drawn): in experiment [2], the IC50 was 360 nM.

For `C#CCNC1CCc2c(OCCc3cc(NC(=O)C(C)(C)C)ccc3F)cccc21` (stereo not drawn), the IC50 in experiment [2] was > 20000 nM.

Turning to `C#CCNC1CCc2c(SCc3ccc(C(C)(C)C)cc3)cccc21` (stereo not drawn), the IC50 in experiment [2] is > 20000 nM.

For the compound `C#CCNC1CCc2c(OCCc3cc(NC(=O)c4ccc(F)cc4)ccc3Cl)cccc21` (stereo not drawn), in experiment [2], the concentration for half-maximal inhibition (IC50) is 5100 nM.

In the case of `C#CCNC1CCc2c(OCCc3cc(NC(=O)c4ccc(Cl)cc4)ccc3Cl)cccc21` (stereo not drawn), the IC50 in experiment [2] was > 20000 nM.

For the compound `C#CCNC1CCc2c(NCc3cccc(F)c3)cccc21` (stereo not drawn), the IC50 in experiment [2] was determined as 1860 nM.

For the compound `C#CCNC1CCc2c(OCCc3cc(NC(=O)COC(C)=O)ccc3Cl)cccc21` (stereo not drawn), the half-inhibitory concentration (IC50) in experiment [1] turned out to be 436000 nM; in experiment [2], 480 nM. In addition, the Ratio IC50 in experiment [3] is 909.

As for `C#CCNC1CCc2c(SCc3ccc(Cl)cc3)cccc21` (stereo not drawn), the IC50 in experiment [1] was 230 nM; in experiment [2], 180 nM. Moreover, the Ratio IC50 in experiment [3] was 1.2.

With `C#CCNC1CCc2c(OCCc3cc(NC(C)=O)ccc3Cl)cccc21` (stereo not drawn), the figures for the IC50 in experiment [1] and in experiment [2] were 85200 nM and 590 nM, respectively. Moreover, the Ratio IC50 in experiment [3] was 144.

Regarding `C#CCNC1CCc2c(NCc3ccc(F)cc3)cccc21` (stereo not drawn), in experiment [2], the IC50 amounted to 980 nM.

The IC50 is the concentration that inhibits the measured activity by half.
